In ChEMBL document CHEMBL1134886, “Synthesis of [(2S,3S,4R)-3,4-dihydroxypyrrolidin-2-yl]-5-methylfuran-4-carboxylic acid derivatives: new leads as selective beta-galactosidase inhibitors” (Bioorg Med Chem Lett, 2002):
Calls of active or inactive are those of the source. The calls are words filed in the database; no cut-off is given here.

Tests used:
Aspergillus niger = assay: Inhibitor concentration against Amyloglucosidases from Aspergillus niger was tested at a dose of 1 mM; NI means no inhibition
[1] = target: T1, Beta-galactosidase (Aspergillus niger) (UniProt P29853); assay: Inhibitor concentration against Beta-galactosidase from Aspergillus niger was tested at a dose of 1 mM; NI means no inhibition
T1 sequence (whole entry): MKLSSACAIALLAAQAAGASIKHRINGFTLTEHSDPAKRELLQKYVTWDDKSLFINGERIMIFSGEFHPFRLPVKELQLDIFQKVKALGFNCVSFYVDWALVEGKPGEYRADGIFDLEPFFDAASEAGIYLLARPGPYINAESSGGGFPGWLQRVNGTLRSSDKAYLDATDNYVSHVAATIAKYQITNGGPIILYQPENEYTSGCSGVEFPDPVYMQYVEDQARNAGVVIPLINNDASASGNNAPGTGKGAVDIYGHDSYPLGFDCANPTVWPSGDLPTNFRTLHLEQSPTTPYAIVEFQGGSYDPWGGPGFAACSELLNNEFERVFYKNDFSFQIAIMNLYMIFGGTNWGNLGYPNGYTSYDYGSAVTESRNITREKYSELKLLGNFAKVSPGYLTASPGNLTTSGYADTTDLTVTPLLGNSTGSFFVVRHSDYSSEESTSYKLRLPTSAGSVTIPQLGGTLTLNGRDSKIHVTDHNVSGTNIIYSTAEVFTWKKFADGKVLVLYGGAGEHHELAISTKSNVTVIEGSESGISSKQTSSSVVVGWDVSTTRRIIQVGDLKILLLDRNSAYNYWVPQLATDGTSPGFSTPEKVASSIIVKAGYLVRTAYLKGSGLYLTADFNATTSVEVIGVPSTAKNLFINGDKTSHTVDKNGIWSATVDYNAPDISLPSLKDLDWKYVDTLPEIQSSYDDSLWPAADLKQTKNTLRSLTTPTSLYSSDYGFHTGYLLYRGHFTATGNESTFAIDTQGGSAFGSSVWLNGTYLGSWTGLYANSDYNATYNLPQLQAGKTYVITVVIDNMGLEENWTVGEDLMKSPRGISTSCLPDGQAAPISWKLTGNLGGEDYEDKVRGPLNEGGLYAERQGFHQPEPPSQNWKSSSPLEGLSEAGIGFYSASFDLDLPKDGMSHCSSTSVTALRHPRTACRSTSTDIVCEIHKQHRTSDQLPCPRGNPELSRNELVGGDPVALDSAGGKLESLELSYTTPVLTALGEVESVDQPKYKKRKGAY

[2] = target: Alpha-galactosidase (Coffea arabica) (UniProt Q42656); assay: Compound was tested for Percent inhibition of Alpha-galactosidase from Coffee bean at a dose of 1 mM
Sequence of Alpha-galactosidase (Coffea arabica) (Q42656 whole entry, looked up): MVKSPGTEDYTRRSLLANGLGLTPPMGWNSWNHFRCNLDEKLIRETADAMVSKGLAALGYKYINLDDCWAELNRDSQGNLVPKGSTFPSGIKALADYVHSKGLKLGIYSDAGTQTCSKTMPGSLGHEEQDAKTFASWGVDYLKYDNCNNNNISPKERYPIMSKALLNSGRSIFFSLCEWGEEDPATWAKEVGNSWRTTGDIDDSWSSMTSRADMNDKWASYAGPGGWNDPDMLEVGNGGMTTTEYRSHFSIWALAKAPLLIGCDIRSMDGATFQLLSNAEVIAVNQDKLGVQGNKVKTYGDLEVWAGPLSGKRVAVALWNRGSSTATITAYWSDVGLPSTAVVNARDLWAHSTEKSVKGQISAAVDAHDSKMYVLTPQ

Prunus dulcis [3] = assay: Inhibitor concentration against alpha-Mannosidases from Almond was tested at a dose of 1 mM
[4] = target: T2, Beta-galactosidase (Bos taurus) (UniProt Q58D55); assay: Compound was tested for Percent inhibition of Beta-galactosidase from Bovine liver at a dose of 1 mM
T2 sequence (whole entry): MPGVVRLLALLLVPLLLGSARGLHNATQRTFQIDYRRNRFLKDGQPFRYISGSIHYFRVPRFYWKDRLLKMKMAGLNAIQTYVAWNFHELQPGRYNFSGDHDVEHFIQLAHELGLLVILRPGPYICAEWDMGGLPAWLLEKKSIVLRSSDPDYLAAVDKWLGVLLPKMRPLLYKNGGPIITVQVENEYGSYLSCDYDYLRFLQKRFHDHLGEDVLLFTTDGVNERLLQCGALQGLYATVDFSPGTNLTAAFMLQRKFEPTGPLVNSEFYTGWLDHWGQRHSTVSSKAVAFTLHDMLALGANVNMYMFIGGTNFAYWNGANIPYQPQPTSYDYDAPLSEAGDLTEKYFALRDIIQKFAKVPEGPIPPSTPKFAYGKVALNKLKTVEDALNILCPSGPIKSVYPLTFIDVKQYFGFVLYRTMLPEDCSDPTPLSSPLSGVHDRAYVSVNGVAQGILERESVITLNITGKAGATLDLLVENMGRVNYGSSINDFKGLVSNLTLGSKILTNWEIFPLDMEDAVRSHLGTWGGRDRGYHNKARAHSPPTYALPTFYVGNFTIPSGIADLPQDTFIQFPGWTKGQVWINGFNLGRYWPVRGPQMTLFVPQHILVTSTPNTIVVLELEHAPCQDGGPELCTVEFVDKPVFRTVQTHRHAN

[5] = target: Beta-galactosidase (Escherichia coli) (UniProt Q8VNN2); assay: Inhibitor concentration against Beta-galactosidase from Escherichia coli was tested at a dose of 1 mM; NI means no inhibition
Sequence of Beta-galactosidase (Escherichia coli) (Q8VNN2 whole entry, looked up): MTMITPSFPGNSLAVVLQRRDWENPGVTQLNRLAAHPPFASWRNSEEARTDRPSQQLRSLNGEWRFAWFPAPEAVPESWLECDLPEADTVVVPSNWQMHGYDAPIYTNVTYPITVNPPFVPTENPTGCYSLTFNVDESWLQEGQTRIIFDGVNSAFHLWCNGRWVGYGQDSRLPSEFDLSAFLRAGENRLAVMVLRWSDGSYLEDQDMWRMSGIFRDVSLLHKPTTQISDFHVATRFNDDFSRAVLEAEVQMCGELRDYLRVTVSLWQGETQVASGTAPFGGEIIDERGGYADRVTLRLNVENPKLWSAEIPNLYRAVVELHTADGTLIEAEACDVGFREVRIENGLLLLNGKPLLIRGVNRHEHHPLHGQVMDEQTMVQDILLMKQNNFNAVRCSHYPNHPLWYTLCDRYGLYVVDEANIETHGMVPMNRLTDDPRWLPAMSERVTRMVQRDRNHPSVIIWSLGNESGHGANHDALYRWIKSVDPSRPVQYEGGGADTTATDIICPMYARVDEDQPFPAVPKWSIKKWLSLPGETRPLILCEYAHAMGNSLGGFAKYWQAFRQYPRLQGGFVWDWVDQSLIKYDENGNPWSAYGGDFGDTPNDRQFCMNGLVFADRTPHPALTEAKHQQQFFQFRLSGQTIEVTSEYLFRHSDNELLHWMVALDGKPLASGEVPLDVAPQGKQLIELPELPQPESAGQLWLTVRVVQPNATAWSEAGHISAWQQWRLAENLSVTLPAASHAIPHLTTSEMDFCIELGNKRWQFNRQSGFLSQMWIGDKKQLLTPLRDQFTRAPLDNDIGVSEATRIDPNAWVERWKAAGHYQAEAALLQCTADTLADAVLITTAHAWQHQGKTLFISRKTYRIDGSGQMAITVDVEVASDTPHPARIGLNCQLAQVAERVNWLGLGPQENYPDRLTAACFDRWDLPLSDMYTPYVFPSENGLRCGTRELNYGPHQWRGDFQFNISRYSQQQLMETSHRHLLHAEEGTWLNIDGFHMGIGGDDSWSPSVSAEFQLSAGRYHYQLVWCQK

[6] = target: T3, Tissue alpha-L-fucosidase (Homo sapiens) (UniProt P04066); assay: Compound was tested for Percent inhibition of alpha-L-Fucosidase from Human placenta at a dose of 1 mM
T3 sequence (whole entry): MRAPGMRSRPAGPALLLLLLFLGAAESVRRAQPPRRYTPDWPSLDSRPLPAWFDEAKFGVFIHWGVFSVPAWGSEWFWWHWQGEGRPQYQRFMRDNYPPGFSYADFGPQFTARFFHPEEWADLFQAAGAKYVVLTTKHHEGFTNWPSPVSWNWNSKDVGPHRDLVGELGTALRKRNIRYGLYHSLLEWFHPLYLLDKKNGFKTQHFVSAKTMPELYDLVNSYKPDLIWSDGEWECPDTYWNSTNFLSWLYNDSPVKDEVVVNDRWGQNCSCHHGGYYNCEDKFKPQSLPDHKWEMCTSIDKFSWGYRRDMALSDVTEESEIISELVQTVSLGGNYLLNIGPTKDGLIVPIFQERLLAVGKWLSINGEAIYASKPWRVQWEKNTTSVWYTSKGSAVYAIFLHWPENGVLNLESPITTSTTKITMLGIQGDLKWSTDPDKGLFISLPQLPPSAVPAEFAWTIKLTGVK

Canavalia ensiformis = assay: Compound was tested for Percent inhibition of alpha-Mannosidases from Jack beans at a dose of 1 mM
Prunus dulcis [7] = assay: Inhibitor concentration against alpha-Mannosidases from Almonds was tested at a dose of 1 mM
Beta-galactosidase [8] = target: T4, Beta-galactosidase (Bos taurus, UniProt Q58D55); assay: Inhibitor concentration against Beta-galactosidase from Bovine liver
T4 sequence (Q58D55 whole entry): T2 sequence (whole entry)

[9] = target: Beta-galactosidase (Escherichia coli) (UniProt Q8VNN2); assay: Inhibitor concentration against Beta-galactosidase from was Escherichia coli tested at a dose of 1 mM; NI means no inhibition
[10] = target: T1, Beta-galactosidase (Aspergillus niger); assay: Compound was tested for Percent inhibition of Beta-galactosidase from Aspergillus niger; settings: concentration not given here
Rhizopus [11] = assay: Inhibitor concentration against Amyloglucosidases from Rhizopus mold was tested at a dose of 1 mM; NI means no inhibition
Beta-galactosidase [12] = target: T5, Beta-galactosidase (Aspergillus niger, UniProt P29853); assay: Inhibitor concentration against Beta-galactosidase from Aspergillus niger was tested at a dose of 1 mM
T5 sequence (P29853 whole entry): T1 sequence (whole entry)

Prunus dulcis [13] = assay: Inhibition of alpha-Mannosidases from Almond was tested at a dose of 1 mM; NI means no inhibition
[14] = target: T1, Beta-galactosidase (Aspergillus niger); assay: Compound was tested for Percent inhibition of Beta-galactosidase from Aspergillus niger at a dose of 1 mM
Rhizopus [15] = assay: Compound was tested for Percent inhibition of Amyloglucosidases from Rhizopus mold; NI means no inhibition
[16] = target: Beta-galactosidase (Escherichia coli) (UniProt Q8VNN2); assay: Compound was tested for Percent inhibition of Beta-galactosidase from Escherichia coli at a dose of 1 mM
[17] = target: Alpha-galactosidase (Coffea arabica) (UniProt Q42656); assay: Inhibitor concentration against Alpha-galactosidase from Coffee beans was tested at a dose of 1 mM; NI means no inhibition
[18] = target: alpha-galactosidase (Escherichia coli) (UniProt P06720); assay: Inhibitor concentration against alpha-Galactosidase from Escherichia coli was tested at a dose of 1 mM; NI means no inhibition
Sequence of alpha-galactosidase (Escherichia coli) (P06720 whole entry, looked up): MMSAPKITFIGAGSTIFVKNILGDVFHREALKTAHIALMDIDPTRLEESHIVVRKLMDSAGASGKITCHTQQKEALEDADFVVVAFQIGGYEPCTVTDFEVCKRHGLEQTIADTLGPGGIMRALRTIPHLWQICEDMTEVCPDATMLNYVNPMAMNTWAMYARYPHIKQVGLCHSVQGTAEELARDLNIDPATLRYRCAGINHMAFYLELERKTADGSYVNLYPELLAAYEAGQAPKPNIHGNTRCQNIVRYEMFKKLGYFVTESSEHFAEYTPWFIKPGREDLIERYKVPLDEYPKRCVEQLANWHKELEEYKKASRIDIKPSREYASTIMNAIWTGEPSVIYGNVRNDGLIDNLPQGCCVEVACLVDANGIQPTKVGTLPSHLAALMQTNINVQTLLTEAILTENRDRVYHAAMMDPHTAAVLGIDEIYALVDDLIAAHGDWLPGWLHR

Prunus dulcis [19] = assay: Inhibitor concentration against alpha-Mannosidases from Almond was tested at a dose of 1 mM; NI means no inhibition
Beta-galactosidase [20] = target: T5, Beta-galactosidase; assay: Inhibition constant(Non competitive) of compound against Beta-galactosidase from Aspergillus niger
[21] = target: Alpha-galactosidase (Coffea arabica) (UniProt Q42656); assay: Compound showed Non competitive inhibition against Alpha-galactosidase from coffee bean; NI means no inhibition at a dose of 1 mM
Beta-galactosidase [22] = target: T5, Beta-galactosidase; assay: Inhibitor concentration against Beta-galactosidase from Aspergillus niger
Prunus dulcis [23] = assay: Inhibition of alpha-Mannosidases from Almonds was tested at a dose of 1 mM

Structure (SMILES)	inhibition (Aspergillus niger)	inhibition [4] [%]	inhibition [5]	inhibition [6] [%]	inhibition (Canavalia ensiformis) [%]	IC50 (Beta-galactosidase [8]) [µM]	inhibition [14] [%]	inhibition (Rhizopus [15])	inhibition [16] [%]	other results
Cc1oc([C@@H]2NC[C@@H](O)[C@H]2O)cc1C(=O)NC(C)C	23%	38	inactive	–	–	–	–	–	–	inhibition [1]: inactive; inhibition [2]: 29%; inhibition (Prunus dulcis [3]): 9%
CCN(CC)C(=O)c1cc([C@@H]2NC[C@@H](O)[C@H]2O)oc1C	inactive	58	inactive	91	27	–	–	–	–	inhibition (Prunus dulcis [7]): 31%
Cc1oc([C@H]2NC[C@@H](O)[C@H]2O)cc1C(=O)NC(C)C	inactive	49	–	39	–	1000	–	–	–	inhibition [9]: inactive; inhibition [10]: 79%; inhibition (Rhizopus [11]): inactive; IC50 (Beta-galactosidase [12]): 250 µM
CCOC(=O)c1cc([C@H]2NC[C@@H](O)[C@H]2O)oc1C	inactive	78	–	–	49	–	99	inactive	83	inhibition (Prunus dulcis [13]): 37%; Ki [17]: Not Active
CCOC(=O)c1cc([C@@H]2NC[C@@H](O)[C@H]2O)oc1C	inactive	57	–	76	38	–	80	–	–	inhibition [18]: inactive; inhibition (Prunus dulcis [19]): inactive
CCN(CC)C(=O)c1cc([C@H]2NC[C@@H](O)[C@H]2O)oc1C	inactive	90	–	–	37	42	96	inactive	33	Ki (Beta-galactosidase [20]): 30 µM; inhibition [21]: No inhibition; IC50 (Beta-galactosidase [22]): 28 µM; inhibition (Prunus dulcis [23]): 38%
